From article PMC5908160, “Inhibition of sperm motility in male macaques with EP055, a potential non-hormonal male contraceptive” (PLoS ONE, 2018)

System: rhesus macaque (Macaca mulatta) sperm
Assay: Sperm motility in rhesus males after i.v. infusion of EP055
Format: in vivo
Description: Semen was collected by direct penile stimulation with a P-T Electronics Model 303 PTE 110 Volt AC stimulator equipped with electrocardiogram pad electrodes (10–35 V, 20 ms duration, 18 pulses/sec) as previously described. Semen was collected weekly for 3 weeks to establish baseline parameters for each male. Samples were inspected visually to determine sperm motility and suitability for the study. Sperm motility data from male 28106 presented in S1 Table is representative of pre-treatment samples. Immediately after collection, the seminal plug was separated from the liquefied fraction, placed into a cryovial, flash frozen in liquid nitrogen, and stored at -80C until evaluation for drug levels. Spermatozoa were prepared by centrifugation (7 min, 200 g) of the liquid portion of the ejaculate and resuspending the sperm pellet in TALP-HEPES medium containing 0.3% bovine serum albumin at 37°C. An aliquot was taken to determine concentration using a hemocytometer, percent motility and forward progression as previously described. Baseline semen samples were collected from each male twice during the week prior to treatment. Semen was collected from each male 6–8 hr, 28–30 hr, and 78 hr post-infusion of low dose EP055 (75–80 mg/kg body weight) intravenously. After a one-week recovery period, a baseline semen sample was obtained, and the following week semen samples were collected as described above after an intravenous infusion of high dose EP055 (125–130 mg/kg).
Sperm were diluted in TALP-HEPES medium containing 0.3% bovine serum albumin to achieve 50-100 sperm per field. Videos were taken using an iPhone 6s Plus positioned 12 inches from a Dell model E170Sc 17-inch LCD monitor (1280 x 1024 pixels at 60 Hz, 0.264 mm) attached to an Olympus CK40 inverted microscope using 20x magnification (10x objective). The video camera collected images at a resolution of 1080 x 1920 pixels at 30 frames per second and 401 ppi with a typical contrast ratio of 1300:1 for at least 8 seconds. The pixel size was 1.2 microns and the videos in .mp4 or .mov format. Videos were converted to .avi format using Any Video Converter (version 6.06, http://www.anvsoft.com/any-video-converter-free, Ultimate Media Solutions, AnvSoft Inc). These files were uncompressed using VirtualDub (version 1.10.2, http://www.virtualdub.org/).
Images were analyzed using the MTrackJ plug in (version 1.5.1, https://imagescience.org/meijering/software/mtrackj/) for ImageJ (1.51K, https://fiji.sc/). Briefly, files were imported as uncompressed .avi files, converted to greyscale and saved as .TIFF files. Each image was calibrated by measuring a representative sperm head (acrosomal apex to midpiece) using the Straight Edge Tool, using 5.18 microns as the standard length of a Macaca mulatta sperm head. Approximately 50 sperm per video were manually tracked for the entire length of the track and the mean curvilinear velocity of each track calculated using the MEASURE function. Tracks used in the final analysis were a minimum of 0.4 seconds.
Prior to infusion of EP055, each male was sedated with ketamine by the surgical staff at ONPRC and transported to the operating room. After positioning in dorsal recumbency, the male was intubated and placed under inhalant (isoflurane) anesthesia. Bilateral intravenous catheters were placed in cephalic veins, one for infusion and one for back-up. A percutaneous arterial line was placed in the right femoral artery for direct blood pressure measurement. Invasive blood pressure, heart rate, SpO2, and respirations were monitored by the surgical staff throughout the procedure. Initially, the low doses of EP055 in 5% DMSO-PBS 7.6 was infused by i.v. at 75-80 mg/kg, using a Medfusion 3500 pump (Smiths Medical, St. Paul, MN), and was started at a low flow rate (0.6mg/kg/min). In 3 of 4 males, a 5-10% increase in blood pressure and heart rate were noted within the first 2-3 minutes of infusion of EP055. […]

[1] = high dose 125–130 mg/kg, post-infusion
[2] = male 25854, high dose 125–130 mg/kg, 6 hrs post-iv
[3] = male 25854, high dose 125–130 mg/kg, 30 hrs post-iv
[4] = male 25854, high dose 125–130 mg/kg, 78 hrs post-iv
[5] = male 25854, high dose 125–130 mg/kg, 318 hrs post-iv
[6] = male 25854, high dose 125–130 mg/kg, 390 hrs post-iv
[7] = male 25854, high dose 125–130 mg/kg, 558 hrs post-iv
[8] = male 25854, low dose 75–80 mg/kg, 6 hrs post-iv
[9] = male 25854, low dose 75–80 mg/kg, 30 hrs post-iv
[10] = male 25854, low dose 75–80 mg/kg, 78 hrs post-iv
[11] = male 25854, low dose 75–80 mg/kg, 1206 hrs post-iv
[12] = male 25854, low dose 75–80 mg/kg, 1254 hrs post-iv
[13] = male 28043, high dose 125–130 mg/kg, 6 hrs post-iv
[14] = male 28043, high dose 125–130 mg/kg, 28 hrs post-iv
[15] = male 28043, high dose 125–130 mg/kg, 78 hrs post-iv
[16] = male 28043, high dose 125–130 mg/kg, 360 hrs post-iv
[17] = male 28043, high dose 125–130 mg/kg, 408 hrs post-iv
[18] = male 28043, high dose 125–130 mg/kg, 528 hrs post-iv
[19] = male 28043, low dose 75–80 mg/kg, 6 hrs post-iv
[20] = male 28043, low dose 75–80 mg/kg, 30 hrs post-iv
[21] = male 28043, low dose 75–80 mg/kg, 78 hrs post-iv
[22] = male 28043, low dose 75–80 mg/kg, 480 hrs post-iv
[23] = male 28043, low dose 75–80 mg/kg, 648 hrs post-iv
[24] = male 28106, high dose 125–130 mg/kg, 6 hrs post-iv
[25] = male 28106, high dose 125–130 mg/kg, 30 hrs post-iv
[26] = male 28106, high dose 125–130 mg/kg, 78 hrs post-iv
[27] = male 28106, high dose 125–130 mg/kg, 318 hrs post-iv
[28] = male 28106, high dose 125–130 mg/kg, 390 hrs post-iv
[29] = male 28106, high dose 125–130 mg/kg, 558 hrs post-iv
[30] = male 28106, high dose 125–130 mg/kg, 894 hrs post-iv
[31] = male 28106, low dose 75–80 mg/kg, 6 hrs post-iv
[32] = male 28106, low dose 75–80 mg/kg, 30 hrs post-iv
[33] = male 28106, low dose 75–80 mg/kg, 78 hrs post-iv
[34] = male 28106, low dose 75–80 mg/kg, 342 hrs post-iv
[35] = male 28187, high dose 125–130 mg/kg, 8 hrs post-iv
[36] = male 28187, high dose 125–130 mg/kg, 30 hrs post-iv
[37] = male 28187, high dose 125–130 mg/kg, 78 hrs post-iv
[38] = male 28187, high dose 125–130 mg/kg, 414 hrs post-iv
[39] = male 28187, low dose 75–80 mg/kg, 6 hrs post-iv
[40] = male 28187, low dose 75–80 mg/kg, 30 hrs post-iv
[41] = male 28187, low dose 75–80 mg/kg, 78 hrs post-iv
[42] = male 28187, low dose 75–80 mg/kg, 582 hrs post-iv
[43] = male 28187, low dose 75–80 mg/kg, 678 hrs post-iv

COC(=O)NNc1nc(Nc2ccc(NC(C)=O)c(O)c2)nc(SCC(=O)O)n1 [EP055]
normal motility (high dose 125–130 mg/kg, 30 hours post-infusion): no normal motility was observed
time at which recovery of sperm motility was obvious [1]: ≤ 78 h
time to full recovery of sperm motility in all animals [1]: ≤ 18 days
sperm motility (high dose 125–130 mg/kg, within 6 hours post-infusion, mean of 4 animals): approximately 20%
normal sperm motility (low dose 75–80 mg/kg, by 30 hours post-infusion, mean of 4 animals): below 32%
F1 [2]: 5%
F2 [2]: 80%
Static [2]: 15%
VCL ± SEM [2]: 104.6 ± 6.9 um/sec
Clumps [3]: Yes
F1 [3]: 10%
F2 [3]: 60%
Static [3]: 30%
VCL ± SEM [3]: 120.9 ± 4.8 um/sec
Clumps [4]: Few
F1 [4]: 20%
F2 [4]: 25%
Static [4]: 55%
VCL ± SEM [4]: 94.2 ± 5.0 um/sec
F1 [5]: 20%
F2 [5]: 20%
F3+F4 [5]: 10%
Static [5]: 50%
F1 [6]: 10%
F3+F4 [6]: 70%
Static [6]: 20%
VCL ± SEM [6]: 93.2 ± 5.0 um/sec
F1 [7]: 1%
F3+F4 [7]: 90%
Static [7]: 9%
Clumps [8]: Few
F1 [8]: 10%
F3+F4 [8]: 70%
Static [8]: 20%
Clumps [9]: Fewer
F1 [9]: 5%
F3+F4 [9]: 80%
Static [9]: 15%
Clumps [10]: Yes
F1 [10]: <1%
F3+F4 [10]: 95%
Static [10]: 5%
F1 [11]: 2%
F3+F4 [11]: 83%
Static [11]: 15%
F3+F4 [12]: 80%
Static [12]: 20%
Clumps [13]: Yes
F1 [13]: 25%
F3+F4 [13]: 50%
Static [13]: 25%
Clumps [14]: Yes
F1 [14]: 99%
F3+F4 [14]: <1%
VCL ± SEM [14]: 72.1 ± 12.4 um/sec
Clumps [15]: Few
F1 [15]: 10%
F3+F4 [15]: 60%
Static [15]: 30%
VCL ± SEM [15]: 117.5 ± 16.3. um/sec
F1 [16]: 10%
F3+F4 [16]: 65%
Static [16]: 25%
Clumps [17]: Yes
F1 [17]: 5%
F3+F4 [17]: 70%
Static [17]: 25%
F2 [18]: 5%
F3+F4 [18]: 80%
Static [18]: 15%
VCL ± SEM [18]: 135.0 ± 12.6 um/sec
Clumps [19]: Few
F3+F4 [19]: 75%
Static [19]: 25%
Clumps [20]: Yes
F1 [20]: 20%
F3+F4 [20]: 30%
Static [20]: 50%
Clumps [21]: Yes
F1 [21]: 20%
F2 [21]: 50%
Static [21]: 30%
F3+F4 [22]: 80%
Static [22]: 20%
F1 [23]: 5%
F3+F4 [23]: 80%
Static [23]: 15%
Clumps [24]: Yes
F1 [24]: 55%
F2 [24]: 25%
Static [24]: 20%
VCL ± SEM [24]: 72.8 ± 4.8 um/sec
Clumps [25]: Yes
F1 [25]: 20%
F2 [25]: 5%
Static [25]: 75%
VCL ± SEM [25]: 67.5 ± 7.9 um/sec
Clumps [26]: Yes
F1 [26]: 15%
F2 [26]: 20%
F3+F4 [26]: 10%
Static [26]: 55%
VCL ± SEM [26]: 80.3 ± 6.9 um/sec
Clumps [27]: Yes
F1 [27]: 30%
F2 [27]: 20%
F3+F4 [27]: 25%
Static [27]: 25%
Clumps [28]: Yes
F1 [28]: 15%
F2 [28]: 10%
F3+F4 [28]: 50%
Static [28]: 25%
Clumps [29]: Yes
F1 [29]: 15%
F2 [29]: 40%
F3+F4 [29]: 15%
Static [29]: 30%
F1 [30]: 2%
F3+F4 [30]: 78%
Static [30]: 20%
VCL ± SEM [30]: 101.7 ± 4.1 um/sec
Clumps [31]: Yes
F1 [31]: 20%
F3+F4 [31]: 50%
Static [31]: 30%
VCL ± SEM [31]: 135.8 ± 6.8 um/sec
Clumps [32]: Yes
F1 [32]: 25%
F2 [32]: 45%
F3+F4 [32]: 5%
Static [32]: 25%
VCL ± SEM [32]: 105.1 ± 7.0 um/sec
Clumps [33]: Yes
F1 [33]: 30%
F2 [33]: 40%
Static [33]: 30%
VCL ± SEM [33]: 89.7 ± 6.3 um/sec
F1 [34]: 5%
F3+F4 [34]: 80%
Static [34]: 15%
VCL ± SEM [34]: 105.0 ± 5.8 um/sec
Clumps [35]: Yes
F1 [35]: 10%
F2 [35]: 50%
F3+F4 [35]: 30%
Static [35]: 10%
VCL ± SEM [35]: 52.9 ± 3.0 um/sec
Clumps [36]: Yes
F1 [36]: 10%
F2 [36]: 80%
Static [36]: 10%
VCL ± SEM [36]: 40.5 ± 2.7 um/sec
Clumps [37]: Fewer
F1 [37]: 95%
Static [37]: 5%
VCL ± SEM [37]: 25.4 ± 2.6 um/sec
Clumps [38]: Few
F1 [38]: 10%
F3+F4 [38]: 85%
Static [38]: 5%
VCL ± SEM [38]: 87.3 ± 6.2 um/sec
Clumps [39]: Few
F1 [39]: 35%
F3+F4 [39]: 65%
Clumps [40]: Yes
F3+F4 [40]: 10%
Static [40]: 90%
Clumps [41]: Yes
F1 [41]: 95%
F3+F4 [41]: 5%
F1 [42]: 95%
F3+F4 [42]: 5%
F3+F4 [43]: 80%
Static [43]: 20%
VCL ± SEM [43]: 109.4 ± 13.8 um/sec
sperm clumping (post-infusion): severe sperm clumping
potential contraceptive window following administration (rhesus): 24 to 48 h
time necessary for sperm velocity to recover completely (rhesus): more than 3 weeks
